#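 96-well plates; 48 h exposure; 5 concentrations. Endpoints by linear interpolation between flanking doses. Not reached: highest tested concentration assigned. Abbreviation: GI50, concentration required for 50% inhibition of growth. The concentration for full growth arrest is given as TGI.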
# Legend:
# Experiment in all cases: NCI anticancer screen, dose series, 48 h
# [1] = tested on: CAKI-1 renal
# [2] = tested on: MOLT-4 leukemia
# [3] = tested on: HT29 colon
# [4] = tested on: SF-295 CNS
# [5] = tested on: UACC-62 melanoma
# [6] = tested on: BT-549 breast
# [7] = tested on: HCC-2998 colon
# [8] = tested on: U251 CNS
# [9] = tested on: OVCAR-5 ovarian
# [10] = tested on: OVCAR-4 ovarian
# [11] = tested on: HCT-15 colon
# [12] = tested on: SNB-75 CNS
# [13] = tested on: EKVX NSCLC
# [14] = tested on: SK-OV-3 ovarian
# [15] = tested on: SN12C renal
# [16] = tested on: OVCAR-8 ovarian
# [17] = tested on: UO-31 renal
# [18] = tested on: HOP-62 NSCLC
# [19] = tested on: K-562 leukemia
# [20] = tested on: SK-MEL-28 melanoma
# [21] = tested on: HOP-92 NSCLC
# [22] = tested on: SK-MEL-2 melanoma
# [23] = tested on: COLO 205 colon
# [24] = tested on: IGROV1 ovarian
# [25] = tested on: DU-145 prostate
# [26] = tested on: SF-268 CNS
# [27] = tested on: NCI-H522 lung
# [28] = tested on: SW-620 colon
# [29] = tested on: NCI-H23 lung
# [30] = tested on: HCT-116 colon
# [31] = tested on: HS 578T breast
# [32] = tested on: MDA-MB-231 breast
# [33] = tested on: MCF7 breast
# [34] = tested on: KM12 colon
# [35] = tested on: RXF 393 renal
# [36] = tested on: NCI-H460 lung
# [37] = tested on: ACHN renal
# [38] = tested on: UACC-257 melanoma
# [39] = tested on: M14 melanoma
# [40] = tested on: NCI/ADR-RES ovarian
# [41] = tested on: A549 NSCLC
# [42] = tested on: A498 renal
# [43] = tested on: 786-0 renal
# [44] = tested on: MDA-MB-435
# [45] = tested on: LOX IMVI melanoma
# [46] = tested on: MALME-3M melanoma
# [47] = tested on: RPMI-8226 leukemia
# [48] = tested on: TK-10 renal
# [49] = tested on: NCI-H226 lung
# [50] = tested on: HL-60(TB) leukemia
# [51] = tested on: SK-MEL-5 melanoma
# [52] = tested on: PC-3 prostate
# [53] = tested on: OVCAR-3 ovarian
# [54] = tested on: SNB-19 CNS
# [55] = tested on: SF-539 CNS
# [56] = tested on: CCRF-CEM leukemia
# [57] = tested on: T-47D breast
smiles,measurement,setting,value
N#CC(C#N)=C/C=C(\Sc1ccc(F)c(Cl)c1)c1ccc(Cl)cc1,GI50,[1],1.77 µM
same,TGI,[1],12.1 µM
same,GI50,[2],0.335 µM
same,TGI,[2],2.74 µM
same,GI50,[3],0.545 µM
same,TGI,[3],2.24 µM
same,GI50,[4],10.7 µM
same,TGI,[4],> 53.2 µM
same,GI50,[5],2.43 µM
same,TGI,[5],11.5 µM
same,GI50,[6],3.09 µM
same,TGI,[6],8.84 µM
same,GI50,[7],5.71 µM
same,TGI,[7],17.8 µM
same,GI50,[8],0.72 µM
same,TGI,[8],2.61 µM
same,GI50,[9],2.93 µM
same,TGI,[9],24.6 µM
same,GI50,[10],0.918 µM
same,TGI,[10],7.43 µM
same,GI50,[11],0.601 µM
same,TGI,[11],2.01 µM
same,GI50,[12],5.62 µM
same,TGI,[12],16 µM
same,GI50,[13],14.5 µM
same,TGI,[13],39.5 µM
same,GI50,[14],15.8 µM
same,TGI,[14],> 41.1 µM
same,GI50,[15],0.669 µM
same,TGI,[15],1.93 µM
same,GI50,[16],0.862 µM
same,TGI,[16],2.42 µM
same,GI50,[17],0.889 µM
same,TGI,[17],2.86 µM
same,GI50,[18],1.52 µM
same,TGI,[18],5.78 µM
same,GI50,[19],0.396 µM
same,TGI,[19],12.6 µM
same,TGI,[20],3.53 µM
same,GI50,[21],0.947 µM
same,TGI,[21],6.91 µM
same,GI50,[22],7.01 µM
same,TGI,[22],23.9 µM
same,GI50,[23],2.58 µM
same,TGI,[23],> 21.3 µM
same,GI50,[24],1.09 µM
same,TGI,[24],4.29 µM
same,GI50,[25],1.12 µM
same,TGI,[25],6.77 µM
same,GI50,[26],2.52 µM
same,TGI,[26],17.8 µM
same,GI50,[27],1.8 µM
same,TGI,[27],7.71 µM
same,GI50,[28],0.494 µM
same,TGI,[28],5.74 µM
same,GI50,[29],1.14 µM
same,TGI,[29],5.64 µM
same,GI50,[30],0.3 µM
same,TGI,[30],0.799 µM
same,GI50,[31],4.78 µM
same,TGI,[31],43.5 µM
same,GI50,[32],0.671 µM
same,TGI,[32],2.02 µM
same,GI50,[33],1.25 µM
same,TGI,[33],26.7 µM
same,GI50,[34],2.74 µM
same,TGI,[34],13.1 µM
same,GI50,[35],0.663 µM
same,TGI,[35],2.12 µM
same,GI50,[36],5.24 µM
same,TGI,[36],22.7 µM
same,GI50,[37],0.795 µM
same,TGI,[37],3.34 µM
same,GI50,[38],6.68 µM
same,TGI,[38],19.5 µM
same,GI50,[39],0.807 µM
same,TGI,[39],2.53 µM
same,GI50,[40],1.11 µM
same,TGI,[40],4.82 µM
same,GI50,[41],3.29 µM
same,TGI,[41],12.7 µM
same,GI50,[42],16 µM
same,TGI,[42],32.4 µM
same,GI50,[43],0.95 µM
same,TGI,[43],2.49 µM
same,GI50,[44],1.25 µM
same,TGI,[44],4.29 µM
same,GI50,[45],0.302 µM
same,TGI,[45],1.12 µM
same,GI50,[46],3.26 µM
same,TGI,[46],20.4 µM
same,GI50,[47],0.271 µM
same,TGI,[47],0.967 µM
same,GI50,[48],1.62 µM
same,TGI,[48],6.57 µM
same,GI50,[49],2.05 µM
same,TGI,[49],6.25 µM
same,GI50,[50],0.317 µM
same,TGI,[50],4.48 µM
same,GI50,[51],7.22 µM
same,TGI,[51],19.4 µM
same,GI50,[52],0.787 µM
same,TGI,[52],7.1 µM
same,GI50,[53],3.99 µM
same,TGI,[53],16.3 µM
same,GI50,[54],5.48 µM
same,TGI,[54],28.2 µM
same,GI50,[55],2.19 µM
same,TGI,[55],6.58 µM
same,GI50,[56],0.193 µM
same,TGI,[56],0.539 µM
same,GI50,[57],11.6 µM
same,TGI,[57],46.3 µM
